Source: the CombiSolv-Exp solvation set (Vermeire and Green 2021)
Each block holds one molecule with its values, some of them ahead of it.

Experiment: solvent given as SMILES
[1] = in CCCCCCCC(=O)OCC(COC(=O)CCCCCCC)OC(=O)CCCCCCC

Compound: CCN(CC)CC
- solvation free energy, 298 K (in Brc1ccccc1): -18.7 kJ/mol
- solvation free energy, 298 K (in C1CCOC1): -19.2 kJ/mol
- solvation free energy, 298 K (in C1COCCO1): -17 kJ/mol
- solvation free energy, 298 K (in CC1COC(=O)O1): -12.1 kJ/mol
- solvation free energy, 298 K (in CC#N): -15.3 kJ/mol
- solvation free energy, 298 K (in CC(=O)c1ccccc1): -16.4 kJ/mol
- solvation free energy, 298 K (in CC(C)(C)O): -18.3 kJ/mol
- solvation free energy, 298 K (in CC(C)=O): -16.9 kJ/mol
- solvation free energy, 298 K (in CC(C)CCO): -20.4 kJ/mol
- solvation free energy, 298 K (in CC(C)O): -19 kJ/mol
- solvation free energy, 298 K (in CC(Cl)(Cl)Cl): -19.4 kJ/mol
- solvation free energy, 298 K (in CCC#N): -16.9 kJ/mol
- solvation free energy, 298 K (in CCC(C)=O): -17.4 kJ/mol
- solvation free energy, 298 K (in CCC(C)O): -20.2 kJ/mol
- solvation free energy, 298 K (in CCCCCC): -18.8 kJ/mol
- solvation free energy, 298 K (in CCCCCCC): -18.7 kJ/mol
- solvation free energy, 298 K (in CCCCCCCCCCCCCCCC): -16.7 kJ/mol
- solvation free energy, 298 K (in CCCCCO): -20.8 kJ/mol
- solvation free energy, 298 K (in CCCCCl): -19.1 kJ/mol
- solvation free energy, 298 K (in CCCCO): -20.3 kJ/mol
- solvation free energy, 298 K (in CCCO): -20.2 kJ/mol
- solvation free energy, 298 K (in CCO): -20.4 kJ/mol
- solvation free energy, 298 K (in CCOC(=O)c1ccccc1): -17 kJ/mol
- solvation free energy, 298 K (in CCOC(C)=O): -17.7 kJ/mol
- solvation free energy, 298 K (in CCOCC): -18.6 kJ/mol
- solvation free energy, 298 K (in CN(C)C=O): -14.9 kJ/mol
- solvation free energy, 298 K (in CO): -21.9 kJ/mol
- solvation free energy, 298 K (in Cc1ccc(C)cc1): -18.9 kJ/mol
- solvation free energy, 298 K (in Cc1ccccc1): -19.5 kJ/mol
- solvation free energy, 298 K (in ClC1CCCCC1): -17.9 kJ/mol
- solvation free energy, 298 K (in ClC(Cl)(Cl)Cl): -20.2 kJ/mol
- solvation free energy, 298 K (in ClC(Cl)C(Cl)Cl): -24.5 kJ/mol
- solvation free energy, 298 K (in ClC(Cl)Cl): -23.5 kJ/mol
- solvation free energy, 298 K (in ClCCCl): -18.3 kJ/mol
- solvation free energy, 298 K (in ClCCl): -20.8 kJ/mol
- solvation free energy, 298 K (in Clc1ccccc1): -19.1 kJ/mol
- solvation free energy, 298 K (in Ic1ccccc1): -18.1 kJ/mol
- solvation free energy, 298 K (in N#Cc1ccccc1): -16.9 kJ/mol
- solvation free energy, 298 K (in O): -13.5 kJ/mol
- solvation free energy, 298 K (in O=C1CCCCC1): -17.2 kJ/mol
- solvation free energy, 298 K (in c1ccccc1): -19.2 kJ/mol

Compound: c1ccc2c(c1)oc1ccccc12
- solvation free energy, 298 K (in CC(=O)N(C)C): -41.6 kJ/mol
- solvation free energy, 298 K (in CN1CCCC1=O): -42 kJ/mol
- solvation free energy, 298 K (in O): -13.8 kJ/mol

Compound: Brc1cc(Br)c(Br)cc1Br
- solvation free energy, 298 K (in CCCCCCCCC=CCCCCCCCC(=O)OCC(COC(=O)CCCCCCCC=CCCCCCCCC)OC(=O)CCCCCCCC=CCCCCCCCC): -40.6 kJ/mol
- solvation free energy, 298 K (in O): -10.6 kJ/mol

Compound: CCc1ccc(C)cc1
- solvation free energy, 298 K (in O): -3.97 kJ/mol

Compound: CC(F)(F)Cl
- solvation free energy, 298 K [1]: -7.7 kJ/mol
- solvation free energy, 298 K (in CCCCCCCCC): -7.28 kJ/mol
- solvation free energy, 298 K (in CCCCCCCCO): -6.78 kJ/mol
- solvation free energy, 298 K (in CN1CCCC1=O): -8.91 kJ/mol
- solvation free energy, 298 K (in CN(C)C=O): -8.74 kJ/mol
- solvation free energy, 298 K (in O): 2.55 kJ/mol

Compound: Clc1ccc(Cl)c(-c2cc(Cl)c(Cl)c(Cl)c2)c1
- solvation free energy, 298 K (in O): -15.1 kJ/mol

Compound: c1nc[nH]n1
- solvation free energy, 298 K (in COC(C)=O): -43.2 kJ/mol
- solvation free energy, 298 K (in O): -48.6 kJ/mol

Compound: CCCCCCI
- solvation free energy, 298 K (in O): 0.335 kJ/mol

Compound: FC(F)Cl
- solvation free energy, 298 K [1]: -7.07 kJ/mol
- solvation free energy, 298 K (in CCCCCCCCC): -4.85 kJ/mol

Compound: O=Cc1ccco1
- solvation free energy, 298 K (in CCCCCCCC): -17.9 kJ/mol
- solvation free energy, 298 K (in CCCCCCCCCC): -18.9 kJ/mol
- solvation free energy, 298 K (in CCOC(C)=O): -26.4 kJ/mol
- solvation free energy, 298 K (in O): -22.1 kJ/mol

Compound: C=C1CCC2C1C1C(C(C)C)CCC21C (configuration not stated)
- solvation free energy, 298 K (in O): 4.98 kJ/mol

Compound: NC(N)=S
- solvation free energy, 298 K (in CCCCCCO): -40 kJ/mol
- solvation free energy, 298 K (in CCCCCO): -40.7 kJ/mol
- solvation free energy, 298 K (in CCCCO): -41.7 kJ/mol
- solvation free energy, 298 K (in CCCO): -42.6 kJ/mol
- solvation free energy, 298 K (in CCO): -44.5 kJ/mol

Compound: Nc1ncnc2c1ncn2C1CCC(CO)O1 (configuration not stated)
- solvation free energy, 298 K (in C=CCCCCCCC=C): -62 kJ/mol
- solvation free energy, 298 K (in C=CCCCCCCCCCCCCCC): -61.4 kJ/mol
- solvation free energy, 298 K (in O): -85.9 kJ/mol

Compound: COCOC
- solvation free energy, 298 K (in ClC(Cl)(Cl)Cl): -15.3 kJ/mol
- solvation free energy, 298 K (in ClC(Cl)Cl): -16.7 kJ/mol
- solvation free energy, 298 K (in O): -12.3 kJ/mol
- solvation free energy, 298 K (in S=C=S): -13.7 kJ/mol

Next, values leading:

- solvation free energy, 298 K (in O): -10.7 kJ/mol
Compound: CCCCCOC(=O)CCC

- solvation free energy, 298 K (in CN(C)C=O): -44.8 kJ/mol
- solvation free energy, 298 K (in O): -21.3 kJ/mol
Compound: COC(=O)c1ccc(I)cc1

- solvation free energy, 298 K (in C=CCCCCCCCCCCCCCC): -14.5 kJ/mol
- solvation free energy, 298 K (in O): 4.56 kJ/mol
Compound: C=CCC=CC

- solvation free energy, 298 K (in O): -37.6 kJ/mol
Compound: O=C(O)CCCCCCCc1ccccc1

- solvation free energy, 298 K (in O): -2.09 kJ/mol
Compound: C=CC(C)=CCC=C(C)C

- solvation free energy, 298 K (in CCCO): -72 kJ/mol
- solvation free energy, 298 K (in CCO): -74 kJ/mol
Compound: O=C1OC(C(O)CO)C(O)=C1O (configuration not stated)

- solvation free energy, 298 K (in CCCCCC): -31.6 kJ/mol
- solvation free energy, 298 K (in CN(C)C=O): -23.3 kJ/mol
- solvation free energy, 298 K (in COCCO): -21.5 kJ/mol
Compound: CCCCCCCCCCC

- solvation free energy, 298 K (in C=CCCCCCCCCCCCCCC): -42.5 kJ/mol
- solvation free energy, 298 K (in O): -54 kJ/mol
Compound: N#CCc1ccc(C(=O)O)cc1

- solvation free energy, 298 K (in O): -22.1 kJ/mol
Compound: CCCCCCCCCC(=O)O

- solvation free energy, 298 K (in O): -39.8 kJ/mol
Compound: CCCC(=O)c1c(C)[nH]n(-c2ccccc2)c1=O
